Laboratory results published in PubChem BioAssay AID1963828 (Molecular Pharmacology Branch, DTP, NCI, 2024).

Tested on: 991263-137-R1-J2-PDC complex spheroid viability
Assay: Anticancer human tumor 991263-137-R1-J2-PDC patient-derived colon adenocarcinoma cell line growth inhibition [POLQ]
Details: for IC50: curve of first compound; for viability, T/C: stronger effect = lower value
In short: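 PDC + HUVEC + MSC complex spheroids; POLQ inhibitors ± partner drugs; top conc. at/near clinical Cmax, else 10 microM (SN-38 1 microM), half-log dilutions; 37 degrees C, 5% CO2.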
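Note: spheroids exposed to compounds for 7 days before readout.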
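Throughout, for viability, T/C: 100% = DMSO vehicle control viability.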

Structure (SMILES): CC1COCCN1c1cc(C2(O)CC3CCC(C2)O3)c2cnn(-c3ccn[nH]3)c2n1 (centres undefined) + Cc1cccc(N(C)C(=O)C2C(O)CCN2c2nc(C)cc(C(F)(F)F)c2C#N)c1
- IC50 (second compound 0.0316 µM): 1240 nM
- IC50 (second compound 0.1 µM): 2180 nM
- IC50 (second compound 0.316 µM): 1640 nM
- IC50 (second compound 1 µM): 3120 nM
- IC50 (second compound 3.16 µM): 2570 nM
- IC50 (second compound 10 µM): 959 nM
- viability, T/C (second compound 0.0316 µM, first compound 0.0316 µM): 107%
- viability, T/C (second compound 0.0316 µM, first compound 0.1 µM): 84.8%
- viability, T/C (second compound 0.0316 µM, first compound 0.316 µM): 67.5%
- viability, T/C (second compound 0.0316 µM, first compound 1 µM): 55.8%
- viability, T/C (second compound 0.0316 µM, first compound 3.16 µM): 35.8%
- viability, T/C (second compound 0.0316 µM, first compound 10 µM): 30.1%
- viability, T/C (second compound 0.1 µM, first compound 0.0316 µM): 110%
- viability, T/C (second compound 0.1 µM, first compound 0.1 µM): 103%
- viability, T/C (second compound 0.1 µM, first compound 0.316 µM): 82.3%
- viability, T/C (second compound 0.1 µM, first compound 1 µM): 61.1%
- viability, T/C (second compound 0.1 µM, first compound 3.16 µM): 46.4%
- viability, T/C (second compound 0.1 µM, first compound 10 µM): 29.2%
- viability, T/C (second compound 0.316 µM, first compound 0.0316 µM): 107%
- viability, T/C (second compound 0.316 µM, first compound 0.1 µM): 110%
- viability, T/C (second compound 0.316 µM, first compound 0.316 µM): 75.9%
- viability, T/C (second compound 0.316 µM, first compound 1 µM): 59.2%
- viability, T/C (second compound 0.316 µM, first compound 3.16 µM): 42.5%
- viability, T/C (second compound 0.316 µM, first compound 10 µM): 28.3%
- viability, T/C (second compound 1 µM, first compound 0.0316 µM): 92%
- viability, T/C (second compound 1 µM, first compound 0.1 µM): 98.2%
- viability, T/C (second compound 1 µM, first compound 0.316 µM): 87.1%
- viability, T/C (second compound 1 µM, first compound 1 µM): 67.4%
- viability, T/C (second compound 1 µM, first compound 3.16 µM): 52.5%
- viability, T/C (second compound 1 µM, first compound 10 µM): 28.6%
- viability, T/C (second compound 3.16 µM, first compound 0.0316 µM): 93.4%
- viability, T/C (second compound 3.16 µM, first compound 0.1 µM): 85.5%
- viability, T/C (second compound 3.16 µM, first compound 0.316 µM): 74.4%
- viability, T/C (second compound 3.16 µM, first compound 1 µM): 61.6%
- viability, T/C (second compound 3.16 µM, first compound 3.16 µM): 47.4%
- viability, T/C (second compound 3.16 µM, first compound 10 µM): 34.6%
- viability, T/C (second compound 10 µM, first compound 0.0316 µM): 90.9%
- viability, T/C (second compound 10 µM, first compound 0.1 µM): 98.8%
- viability, T/C (second compound 10 µM, first compound 0.316 µM): 75.2%
- viability, T/C (second compound 10 µM, first compound 1 µM): 48.2%
- viability, T/C (second compound 10 µM, first compound 3.16 µM): 37.7%
- viability, T/C (second compound 10 µM, first compound 10 µM): 25.9%

Structure (SMILES): CC(=O)O[C@H]1C(=O)[C@@]2(C)[C@H]([C@H](OC(=O)c3ccccc3)[C@]3(O)C[C@H](OC(=O)[C@H](O)[C@@H](NC(=O)c4ccccc4)c4ccccc4)C(C)=C1C3(C)C)[C@]1(OC(C)=O)CO[C@@H]1C[C@@H]2O + Nc1ccc(C#CCN(C(=O)Cc2ncc(C(F)(F)F)cc2C(F)(F)F)c2ccc(F)cc2)nn1
- IC50 (second compound 0.0316 µM): > 3000 nM
- IC50 (second compound 0.1 µM): > 3000 nM
- IC50 (second compound 0.316 µM): 2530 nM
- IC50 (second compound 1 µM): > 3000 nM
- IC50 (second compound 3.16 µM): > 3000 nM
- IC50 (second compound 10 µM): > 3000 nM
- viability, T/C (second compound 0.0316 µM, first compound 0.00949 µM): 98.6%
- viability, T/C (second compound 0.0316 µM, first compound 0.03 µM): 89.7%
- viability, T/C (second compound 0.0316 µM, first compound 0.0949 µM): 84.9%
- viability, T/C (second compound 0.0316 µM, first compound 0.3 µM): 77.8%
- viability, T/C (second compound 0.0316 µM, first compound 0.949 µM): 55.3%
- viability, T/C (second compound 0.0316 µM, first compound 3 µM): 56.6%
- viability, T/C (second compound 0.1 µM, first compound 0.00949 µM): 93.9%
- viability, T/C (second compound 0.1 µM, first compound 0.03 µM): 96.5%
- viability, T/C (second compound 0.1 µM, first compound 0.0949 µM): 87.9%
- viability, T/C (second compound 0.1 µM, first compound 0.3 µM): 85.8%
- viability, T/C (second compound 0.1 µM, first compound 0.949 µM): 55.1%
- viability, T/C (second compound 0.1 µM, first compound 3 µM): 50.9%
- viability, T/C (second compound 0.316 µM, first compound 0.00949 µM): 93.9%
- viability, T/C (second compound 0.316 µM, first compound 0.03 µM): 95.6%
- viability, T/C (second compound 0.316 µM, first compound 0.0949 µM): 85.3%
- viability, T/C (second compound 0.316 µM, first compound 0.3 µM): 80%
- viability, T/C (second compound 0.316 µM, first compound 0.949 µM): 58%
- viability, T/C (second compound 0.316 µM, first compound 3 µM): 48.9%
- viability, T/C (second compound 1 µM, first compound 0.00949 µM): 92.5%
- viability, T/C (second compound 1 µM, first compound 0.03 µM): 96.9%
- viability, T/C (second compound 1 µM, first compound 0.0949 µM): 98%
- viability, T/C (second compound 1 µM, first compound 0.3 µM): 66.4%
- viability, T/C (second compound 1 µM, first compound 0.949 µM): 57.7%
- viability, T/C (second compound 1 µM, first compound 3 µM): 51.7%
- viability, T/C (second compound 3.16 µM, first compound 0.00949 µM): 90.2%
- viability, T/C (second compound 3.16 µM, first compound 0.03 µM): 87.1%
- viability, T/C (second compound 3.16 µM, first compound 0.0949 µM): 68.7%
- viability, T/C (second compound 3.16 µM, first compound 0.3 µM): 60.6%
- viability, T/C (second compound 3.16 µM, first compound 0.949 µM): 51.4%
- viability, T/C (second compound 3.16 µM, first compound 3 µM): 50.6%
- viability, T/C (second compound 10 µM, first compound 0.00949 µM): 84.6%
- viability, T/C (second compound 10 µM, first compound 0.03 µM): 72%
- viability, T/C (second compound 10 µM, first compound 0.0949 µM): 53.8%
- viability, T/C (second compound 10 µM, first compound 0.3 µM): 58.1%
- viability, T/C (second compound 10 µM, first compound 0.949 µM): 49.5%
- viability, T/C (second compound 10 µM, first compound 3 µM): 50.2%
